Patent publication US10913738B2 (BRISTOL-MYERS SQUIBB COMPANY, priority 2017, dated 2021)
Read-outs that look alike come from different tables or passages of the source.

Experiments:
[1] = biological target: T1, His-GST-TVMV-hRIPK1(1-324) (Homo sapiens, UniProt Q13546); assay: RIPK1 HTRF Binding Assay
T1 construct: The coding region of human RIPK1(1-324) flanked by NdeI site at 5′ end; made in house; host or cells: Spodoptera frugiperda (Sf9) insect cells, baculovirus
T1 sequence (Q13546 1-324): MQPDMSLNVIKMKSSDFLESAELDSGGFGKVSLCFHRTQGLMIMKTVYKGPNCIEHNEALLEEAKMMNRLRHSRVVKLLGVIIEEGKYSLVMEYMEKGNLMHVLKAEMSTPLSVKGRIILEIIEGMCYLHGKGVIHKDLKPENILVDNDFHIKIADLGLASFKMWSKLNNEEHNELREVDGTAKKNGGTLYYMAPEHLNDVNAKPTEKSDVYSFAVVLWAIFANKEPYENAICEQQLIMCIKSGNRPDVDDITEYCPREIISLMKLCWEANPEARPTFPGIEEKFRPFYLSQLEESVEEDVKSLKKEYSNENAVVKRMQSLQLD
Description: The plate was incubated at rt for 1 h.
Cloning and Baculovirus Expression of RIPK1 Construct
Baculovirus was generated for the construct using the Bac-to-Bac baculovirus expression system (Invitrogen) according to the manufacturer's protocol. Briefly, recombinant bacmid was isolated from transformed DH10Bac E. coli competent cells (Invitrogen) and used to transfect Spodoptera frugiperda (Sf9) insect cells (Invitrogen). Baculovirus was harvested 72 hours post transfection and a virus stock was prepared by infecting fresh Sf9 cells at a 1/1000 (v/v) ratio for 66 hours.
The production was carried out either at a 10 L scale in a 22 L cellbag (GE Healthcare Bioscience, Pittsburgh, Pa.) or at a 20 L scale in a 50 L cellbag using WAVE-Bioreactor System 20/50 (GE Healthcare Bioscience). The infected cells were harvested by centrifugation at 2000 rpm for 20 min at 4° C. in a SORVALL® RC12BP centrifuge. The cell pellets was stored at −70° C. before protein was purified.
RIPK1 containing cell paste was resuspended in 50 mM Tris pH 7.5, 150 mM NaCl, 10 mM imidazole, 5% glycerol, 5 mM MgSO4, 1 mM TCEP, 25 U/ml Benzonase, and Complete Protease Inhibitor tablets (1/50 ml, Roche Diagnostics, Indianapolis, Ind.). […] The suspension was clarified by centrifugation at 136,000×g for 40 min, at 4° C. The lysate was decanted from the pellet and passed through a 5 ml NiNTA Superflow cartridge (Qiagen, Valencia, Calif.) using an AKTA Pure (GE Healthcare). Column was eluted with 10 CV linear gradient into 50 mM Tris 7.5, 150 mM NaCl, 500 mM imidazole, 5% glycerol, 1 mM TCEP. Peak fractions were pooled and loaded directly onto 5 ml GSTrap 4B column (GE Healthcare). Column was washed with 50 mM Tris 7.0, 150 mM NaCl, 5% glycerol, 1 mM DTT and eluted in 10 CV linear gradient into 50 mM Tris 8.0, 150 mM NaCl, 20 mM reduced glutathione, 5% glycerol, 1 mM DTT. Fractions identified by SDS-PAGE as containing RIPK1 were pooled and concentrated using 30 kDa MWCO spin concentrators (Amicon Ultra-15, Millipore, Billerica, Mass.) and loaded onto a HiLoad 26/600 Superdex 200 column (GE Healthcare) equilibrated in 25 mM Tris 7.5, 150 mM NaCl, 2 mM TCEP, 5% glycerol.
Protein was aliquoted and stored at −80° C.

[2] = test system: MLKL phosphorylation in HT29-L23 human colorectal adenocarcinoma cells; assay: MLKL Phosphorylation High-Content Assay; format: cell-based; settings: Homo sapiens
Description: MLKL Phosphorylation High-Content Assay
Following six hours incubation at 37° C. […] MLKL phosporylation was detected using anti-MLKL (phospho S358) antibody (Abcam #ab187091) (1:1000 dilution in Blocking Buffer [PBS supplemented with 0.1% BSA]) with overnight incubation at 4° C. […] Following another three cycles of washes in PBS, the microplates were sealed, and cellular images were acquired in the Cellomics ArrayScan VTI high-content imager equipped with an X1 camera. […] The image sets were analyzed using the Compartmental Analysis Bioapplication software (Cellomics). The level of MLKL phosphorylation was quantified as MEAN CircRingAvgIntenRatio. […] The data were fitted using the 4-parameter logistic equation to calculate the IC50 and Ymax values.

[3] = x marks IC50 class <20 nM, read-out: RIPK1 HTRF binding <20 nM
[4] = x marks IC50 class 20-200 nM, read-out: pMLKL cell activity 20-200 nM
[5] = x marks IC50 class <20 nM, read-out: pMLKL cell activity <20 nM
[6] = x marks IC50 class 20-200 nM, read-out: RIPK1 HTRF binding 20-200 nM

| SMILES | IC50 [1, 3] | IC50 [2, 4] | also measured |
| --- | --- | --- | --- |
| [2H]C([2H])([2H])c1ncc(-c2ccn3nc(N)nc3c2)cc1C(=O)NCc1cc(OC(F)(F)F)ccc1F [Example 96, 5-{2-amino-[1,2,4]triazolo[1,5-a]pyridin-7-yl}-N-{[2-fluoro-5-(trifluoromethoxy)phenyl]methyl}-2-(deutero)methylpyridine-3-carboxamide] | < 0.02 µM | 0.02 to 0.2 µM |  |
| [2H]C([2H])(NC(=O)c1cc(-c2ccn3nc(N)nc3c2)cnc1OC)c1cc(F)cc(F)c1OCC1CC1 [Example 88, 5-{2-amino-[1,2,4]triazolo[1,5-a]pyridin-7-yl}-N-{[2-(cyclopropylmethoxy)-3,5-difluorophenyl](deutero)methyl}-2-methoxypyridine-3-carboxamide] | < 0.02 µM |  | IC50 [2, 5]: < 0.02 µM |
| COc1ncc(-c2ccn3nc(N)nc3c2)cc1C(=O)NCc1ccc(F)cc1OC1CCCC1 [Example 51, 5-{2-Amino-[1,2,4]triazolo[1,5-a]pyridin-7-yl}-N-{[2-(cyclopentyloxy)-4-fluorophenyl]methyl}-2-methoxypyridine-3-carboxamide] | < 0.02 µM | 0.02 to 0.2 µM |  |
| Cc1ncc(-c2ccn3nc(N)nc3c2)cc1C(=O)N(C)[C@H](C)c1cc(OC(F)(F)F)ccc1F [Example 318, (R)-5-(2-amino-[1,2,4]triazolo[1,5-a]pyridin-7-yl)-N-(1-(2-fluoro-5-(trifluoromethoxy)phenyl)ethyl)-N,2-dimethylnicotinamide] |  | 0.02 to 0.2 µM | IC50 ([1]; x marks IC50 class >200 nM, read-out: RIPK1 HTRF binding >200 nM): > 0.2 µM |
| COc1ncc(-c2ccn3nc(N)nc3c2)cc1C(=O)NCc1c(F)cccc1OCC1CCCC1 [Example 126, 5-{2-amino-[1,2,4]triazolo[1,5-a]pyridin-7-yl}-N-{[2-(cyclopentylmethoxy)-6-fluorophenyl]methyl}-2-methoxypyridine-3-carboxamide] | < 0.02 µM | 0.02 to 0.2 µM |  |
| COc1nc(C)c(-c2ccn3nc(N)nc3c2)cc1C(=O)NCc1cc(F)ccc1OC1CCCC1 [Example 216, 5-{2-amino-[1,2,4]triazolo[1,5-a]pyridin-7-yl}-N-{[2-(cyclopentyloxy)-5-fluorophenyl]methyl}-2-methoxy-6-methylpyridine-3-carboxamide] | < 0.02 µM |  | IC50 [2, 5]: < 0.02 µM |
| [2H]C([2H])(NC(=O)c1cc(-c2ccn3nc(N)nc3c2)cnc1OC)c1ccccc1OC(F)(F)F [Example 2, 5-{2-Amino-[1,2,4]triazolo[1,5-a]pyridin-7-yl}-2-methoxy-N-{[2-(trifluoromethoxy)phenyl](^2H)methyl}pyridine-3-carboxamide] |  | 0.02 to 0.2 µM | IC50 [1, 6]: 0.02 to 0.2 µM |
| Nc1nc2cc(-c3cncc(C(=O)NCc4ccccc4OC4CCCC4)c3)ccn2n1 [Example 43, 5-{2-Amino-[1,2,4]triazolo[1,5-a]pyridin-7-yl}-N-{[2-(cyclopentyloxy)phenyl]methyl}pyridine-3-carboxamide] | < 0.02 µM | 0.02 to 0.2 µM |  |
| [2H]C([2H])([2H])[C@H](NC(=O)c1cc(-c2ccn3nc(N)nc3c2)cnc1C)c1cc(C(F)(F)F)ccc1F [Example 302, (S)-5-(2-amino-[1,2,4]triazolo[1,5-a]pyridin-7-yl)-N-(1-(2-fluoro-5-(trifluoromethyl)phenyl)ethyl-2,2,2-H3)-2-methylnicotinamide] | < 0.02 µM | 0.02 to 0.2 µM |  |
| Cc1nc(C)c(-c2ccn3nc(N)nc3c2)cc1C(=O)NCc1ccccc1OCC(F)(F)F [Example 294, 5-(2-amino-[1,2,4]triazolo[1,5-a]pyridin-7-yl)-2,6-dimethyl-N-(2-(2,2,2-trifluoroethoxy)benzyl)nicotinamide] |  |  | IC50 [1, 6]: 0.02 to 0.2 µM; IC50 ([2]; x marks IC50 class >200 nM, read-out: pMLKL cell activity >200 nM): > 0.2 µM |
| Cc1ncc(-c2ccn3nc(N)nc3c2)cc1C(=O)NCc1cc(F)ccc1OC1CCCC1 [Example 242, 5-{2-amino-[1,2,4]triazolo[1,5-a]pyridin-7-yl}-N-{[2-(cyclopentyloxy)-5-fluorophenyl]methyl}-2-methylpyridine-3-carboxamide] | < 0.02 µM |  | IC50 [2, 5]: < 0.02 µM |
